“And” between values parts separate entries of the source, which are not always exact repeats. Identical values can stand only once.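 96-well plates; 48 h exposure; 5 concentrations. Endpoints by linear interpolation between flanking doses. Not reached: highest tested concentration assigned. GI50 marks 50% less growth. TGI marks complete inhibition of growth.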
What was measured:
Assay in all cases: growth of human tumour cells (NCI), 48 h
HOP-62 NSCLC = system: HOP-62 NSCLC
OVCAR-3 ovarian = system: OVCAR-3 ovarian
KM12 colon = system: KM12 colon
SK-MEL-2 melanoma = system: SK-MEL-2 melanoma
SF-539 CNS = system: SF-539 CNS
U251 CNS = system: U251 CNS
MALME-3M melanoma = system: MALME-3M melanoma
UO-31 renal = system: UO-31 renal
COLO 205 colon = system: COLO 205 colon
NCI-H522 lung = system: NCI-H522 lung
SK-MEL-28 melanoma = system: SK-MEL-28 melanoma
A498 renal = system: A498 renal
MDA-MB-435 = system: MDA-MB-435
SF-295 CNS = system: SF-295 CNS
SW-620 colon = system: SW-620 colon
TK-10 renal = system: TK-10 renal
SR leukemia = system: SR leukemia
M14 melanoma = system: M14 melanoma
IGROV1 ovarian = system: IGROV1 ovarian
HCT-116 colon = system: HCT-116 colon
CCRF-CEM leukemia = system: CCRF-CEM leukemia
RPMI-8226 leukemia = system: RPMI-8226 leukemia
DU-145 prostate = system: DU-145 prostate
SN12C renal = system: SN12C renal
HCT-15 colon = system: HCT-15 colon
MDA-MB-231 breast = system: MDA-MB-231 breast
NCI-H226 lung = system: NCI-H226 lung
OVCAR-4 ovarian = system: OVCAR-4 ovarian
HOP-92 NSCLC = system: HOP-92 NSCLC
A549 NSCLC = system: A549 NSCLC
MCF7 breast = system: MCF7 breast
UACC-257 melanoma = system: UACC-257 melanoma
SNB-19 CNS = system: SNB-19 CNS
K-562 leukemia = system: K-562 leukemia
SNB-75 CNS = system: SNB-75 CNS
SK-MEL-5 melanoma = system: SK-MEL-5 melanoma
OVCAR-8 ovarian = system: OVCAR-8 ovarian
OVCAR-5 ovarian = system: OVCAR-5 ovarian
MOLT-4 leukemia = system: MOLT-4 leukemia
786-0 renal = system: 786-0 renal
NCI/ADR-RES ovarian = system: NCI/ADR-RES ovarian
ACHN renal = system: ACHN renal
LOX IMVI melanoma = system: LOX IMVI melanoma
HL-60(TB) leukemia = system: HL-60(TB) leukemia
T-47D breast = system: T-47D breast
CAKI-1 renal = system: CAKI-1 renal
EKVX NSCLC = system: EKVX NSCLC
MDA-N = system: MDA-N
NCI-H460 lung = system: NCI-H460 lung
HS 578T breast = system: HS 578T breast
SK-OV-3 ovarian = system: SK-OV-3 ovarian
HT29 colon = system: HT29 colon
RXF 393 renal = system: RXF 393 renal
HCC-2998 colon = system: HCC-2998 colon
BT-549 breast = system: BT-549 breast
NCI-H23 lung = system: NCI-H23 lung
UACC-62 melanoma = system: UACC-62 melanoma
SF-268 CNS = system: SF-268 CNS

O/N=C/C1C(OCc2ccccc2)C(OCc2ccccc2)C(OCc2ccccc2)CN1Cc1ccccc1 (configuration not stated)
GI50 (HOP-62 NSCLC): 17.8 µM and 45.4 µM
TGI (HOP-62 NSCLC): 53.1 µM and > 100 µM
GI50 (OVCAR-3 ovarian): 16.9 µM and 7.69 µM
TGI (OVCAR-3 ovarian): 40.2 µM and > 100 µM
GI50 (KM12 colon): 14.4 µM and 2.86 µM
TGI (KM12 colon): 47.2 µM and 19.6 µM
TGI (SK-MEL-2 melanoma): 53.9 µM
TGI (SF-539 CNS): > 100 µM
TGI (U251 CNS): 37.5 µM and > 100 µM
TGI (MALME-3M melanoma): 97.6 µM and 33.6 µM
GI50 (UO-31 renal): 20 µM and 5.22 µM
TGI (UO-31 renal): 65.9 µM and > 100 µM
GI50 (COLO 205 colon): 12.3 µM
TGI (COLO 205 colon): 25.2 µM
TGI (NCI-H522 lung): > 100 µM
TGI (SK-MEL-28 melanoma): 44.1 µM and > 100 µM
TGI (A498 renal): > 100 µM
GI50 (MDA-MB-435): 14.1 µM and 3.14 µM
TGI (MDA-MB-435): 33.6 µM and 27.1 µM
TGI (SF-295 CNS): 29.5 µM and > 100 µM
TGI (SW-620 colon): > 100 µM
GI50 (TK-10 renal): 22 µM and 3.08 µM
TGI (TK-10 renal): 58.8 µM and > 100 µM
GI50 (SR leukemia): 8.3 µM and 2 µM
TGI (SR leukemia): > 100 µM
GI50 (M14 melanoma): 11.7 µM and 5.68 µM
TGI (M14 melanoma): 40.3 µM and > 100 µM
TGI (IGROV1 ovarian): 65.9 µM and > 100 µM
TGI (HCT-116 colon): 22.6 µM and > 100 µM
TGI (CCRF-CEM leukemia): 71.2 µM and > 100 µM
TGI (RPMI-8226 leukemia): > 100 µM
TGI (DU-145 prostate): > 100 µM
GI50 (SN12C renal): 20.6 µM and 4.32 µM
TGI (SN12C renal): 62 µM and > 100 µM
GI50 (HCT-15 colon): 25.7 µM and 9.77 µM
TGI (HCT-15 colon): > 100 µM
TGI (MDA-MB-231 breast): 93.7 µM
GI50 (NCI-H226 lung): 13.7 µM and 4.2 µM
TGI (NCI-H226 lung): 33.8 µM and 85.2 µM
TGI (OVCAR-4 ovarian): > 100 µM
GI50 (HOP-92 NSCLC): 13.6 µM and 1.99 µM
TGI (HOP-92 NSCLC): 33.1 µM and 9.16 µM
TGI (A549 NSCLC): 25 µM and > 100 µM
GI50 (MCF7 breast): 9.88 µM and 2.9 µM
TGI (MCF7 breast): 40.8 µM and 15.7 µM
GI50 (UACC-257 melanoma): 23.3 µM and 2.45 µM
TGI (UACC-257 melanoma): 72.5 µM and 15.7 µM
TGI (SNB-19 CNS): > 100 µM
TGI (K-562 leukemia): 36.6 µM and > 100 µM
GI50 (SNB-75 CNS): 11.5 µM and > 100 µM
TGI (SNB-75 CNS): 33.1 µM and > 100 µM
TGI (SK-MEL-5 melanoma): 23.9 µM
TGI (OVCAR-8 ovarian): 39.9 µM and > 100 µM
GI50 (OVCAR-5 ovarian): 20 µM and 9.34 µM
TGI (OVCAR-5 ovarian): 57.3 µM and > 100 µM
TGI (MOLT-4 leukemia): 31.4 µM
TGI (786-0 renal): 21.1 µM and > 100 µM
GI50 (NCI/ADR-RES ovarian): 7.12 µM and 22.3 µM
TGI (NCI/ADR-RES ovarian): 72.5 µM and > 100 µM
GI50 (ACHN renal): 15.2 µM and 4.4 µM
TGI (ACHN renal): 37.4 µM and > 100 µM
TGI (LOX IMVI melanoma): 29.4 µM and > 100 µM
TGI (HL-60(TB) leukemia): 80.4 µM
TGI (T-47D breast): > 100 µM
TGI (CAKI-1 renal): > 100 µM
TGI (EKVX NSCLC): > 100 µM
TGI (MDA-N): 39.3 µM and > 100 µM
GI50 (NCI-H460 lung): 8.94 µM and 3.24 µM
TGI (NCI-H460 lung): 32.4 µM and 29.9 µM
GI50 (HS 578T breast): 21.5 µM and 3.75 µM
TGI (HS 578T breast): 96.6 µM and 88.5 µM
GI50 (SK-OV-3 ovarian): 22.7 µM and > 100 µM
TGI (SK-OV-3 ovarian): 51.3 µM and > 100 µM
GI50 (HT29 colon): 10.7 µM and 3.59 µM
TGI (HT29 colon): 78.7 µM and > 100 µM
TGI (RXF 393 renal): 46.1 µM
TGI (HCC-2998 colon): > 100 µM
TGI (BT-549 breast): 37.1 µM
GI50 (NCI-H23 lung): 14.1 µM and 2.78 µM
TGI (NCI-H23 lung): 41.7 µM and 26.6 µM
TGI (UACC-62 melanoma): 30.5 µM and > 100 µM
TGI (SF-268 CNS): > 100 µM
